Measurements from article PMC7933930, “Development of a small molecule that corrects misfolding and increases secretion of Z α1‐antitrypsin” (EMBO Molecular Medicine, 2021).

Key:
[1] = target: T1, plasma‐purified wild‐type M α1‐antitrypsin (Homo sapiens, UniProt P01009); assay: Competition binding assay with Alexa488‐labelled analogue of GSK716, M α1‐antitrypsin
T1 construct: purified from the plasma of M (wild‐type) and Z α1‐antitrypsin homozygotes; from tissue; host or cells: human plasma of M (wild-type) homozygotes
T1 sequence (P01009 25-418): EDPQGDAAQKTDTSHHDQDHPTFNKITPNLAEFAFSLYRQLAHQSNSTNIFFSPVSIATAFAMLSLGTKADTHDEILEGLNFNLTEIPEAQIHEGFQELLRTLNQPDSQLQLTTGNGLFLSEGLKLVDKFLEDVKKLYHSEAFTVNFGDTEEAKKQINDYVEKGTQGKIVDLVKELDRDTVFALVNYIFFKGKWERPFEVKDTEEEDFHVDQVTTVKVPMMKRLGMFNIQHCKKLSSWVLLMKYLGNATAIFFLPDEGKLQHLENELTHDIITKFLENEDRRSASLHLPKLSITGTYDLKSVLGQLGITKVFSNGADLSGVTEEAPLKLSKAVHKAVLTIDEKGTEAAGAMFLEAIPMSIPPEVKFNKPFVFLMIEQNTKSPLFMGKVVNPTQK
Text: The shape of the curves and native mass spectrometry (not shown) are consistent with a single high‐affinity compound binding site. No binding of the fluorescent derivative to polymers of Z α1‐antitrypsin was observed, indicating conformational selectivity for the monomeric protein (Fig 1D). The rate of interaction of the compound with the target was monitored through changes in intrinsic tryptophan fluorescence (Dafforn et al, 1999); this property was used to determine the second‐order association rate constants for GSK716 binding to Z (4.1 × 10^4 M^−1 s^−1) and M α1‐antitrypsin (2.1 × 10^2 M^−1 s^−1; Fig 1E and F). […] Therefore, the selectivity of the compound for Z over M α1‐antitrypsin is dominated by the difference in the rate of association rather than dissociation.
Kinetic parameters of GSK716 binding to M, Z, S (Glu264Val) and Baghdad (Ala336Pro) (Haq et al, 2016) α1‐antitrypsin were measured by detecting intrinsic tryptophan fluorescence of the protein (excitation at 280 nm and detection of emission at 320 nm) on a stopped flow apparatus (Applied Photophysics) (Kim & Yu, 1996; Dafforn et al, 1999). […]

[2] = tested on: Z α1‐antitrypsin secretion in CHO‐TET‐ON‐Z‐A1AT cells; assay: Secretion of Z α1‐antitrypsin from CHO‐TET‐ON‐Z‐A1AT cells (TR‐FRET); assay type: cell-based; conditions: n = 74, read-out: mean pEC50, secretion of Z α1‐antitrypsin (converted)
antithrombin = antithrombin (Homo sapiens, UniProt P01008); assay: Inhibitory activity of antithrombin against thrombin; assay type: biochemical
antithrombin, sequence (P01008 33-464): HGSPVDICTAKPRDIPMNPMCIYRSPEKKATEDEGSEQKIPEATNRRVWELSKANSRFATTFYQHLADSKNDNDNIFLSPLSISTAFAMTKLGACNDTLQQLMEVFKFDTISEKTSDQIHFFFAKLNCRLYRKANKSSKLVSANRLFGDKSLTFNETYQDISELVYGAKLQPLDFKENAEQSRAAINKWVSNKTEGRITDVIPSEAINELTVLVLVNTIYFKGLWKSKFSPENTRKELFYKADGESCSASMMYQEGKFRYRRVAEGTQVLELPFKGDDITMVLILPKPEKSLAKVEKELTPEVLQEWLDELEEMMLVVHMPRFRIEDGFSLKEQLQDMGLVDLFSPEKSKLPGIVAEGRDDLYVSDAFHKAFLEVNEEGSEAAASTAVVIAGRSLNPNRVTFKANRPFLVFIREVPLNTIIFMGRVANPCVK
Procedure: Figure 5 The effect of GSK716 on serpin inhibitory activity • α1‐Antitrypsin was incubated at varying molar ratios with the model protease bovine α‐chymotrypsin, and the residual protease activity determined. The intercept of the regression with the abscissa reflects the number of molecules of α1‐antitrypsin required to inhibit one molecule of chymotrypsin in the presence (+c) and absence (−c) of 50µM GSK716. Error bars reflect ± SEM of three independent experiments. • M α1‐antitrypsin was incubated with different molar ratios of chymotrypsin and resolved by SDS–PAGE. The position of covalent α1‐antitrypsin‐chymotrypsin complex (cpx), native (nat) and cleaved (clv) is shown. • The inhibitory activity of α1‐antichymotrypsin against chymotrypsin (ach + chym), neuroserpin against trypsin (neus + tryp), and antithrombin against thrombin (atiii + thrombin) was determined in the presence and absence of GSK716. Error bars reflect ± SD of two independent experiments.
GSK716 selectivity and PK properties were profiled in order to investigate the suitability of GSK716 for progression into in vivo studies and the potential for taking it forward as a clinical candidate for testing in humans. Since GSK716 results in loss of inhibitory activity of α1‐antitrypsin, the effect of the compound was assessed on other closely related serpins. […]

α1 nicotinic AChR = α1 nicotinic AChR (Homo sapiens, UniProt P02708); assay: Off‐target panel: α1 nicotinic AChR; assay type: cell-based
α1 nicotinic AChR, sequence (P02708 21-457): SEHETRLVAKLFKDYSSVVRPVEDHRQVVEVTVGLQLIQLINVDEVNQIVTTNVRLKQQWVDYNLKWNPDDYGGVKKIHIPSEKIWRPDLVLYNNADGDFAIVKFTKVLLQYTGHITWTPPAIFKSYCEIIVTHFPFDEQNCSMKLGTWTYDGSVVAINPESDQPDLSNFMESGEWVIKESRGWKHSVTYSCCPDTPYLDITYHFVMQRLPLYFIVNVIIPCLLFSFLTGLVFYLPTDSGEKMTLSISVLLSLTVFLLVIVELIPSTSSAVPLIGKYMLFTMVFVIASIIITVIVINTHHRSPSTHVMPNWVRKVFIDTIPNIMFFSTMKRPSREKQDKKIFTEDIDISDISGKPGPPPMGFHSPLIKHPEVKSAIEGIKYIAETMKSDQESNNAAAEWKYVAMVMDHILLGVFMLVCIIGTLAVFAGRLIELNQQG
α1 nicotinic AChR, sequence (P11230 24-501 partner): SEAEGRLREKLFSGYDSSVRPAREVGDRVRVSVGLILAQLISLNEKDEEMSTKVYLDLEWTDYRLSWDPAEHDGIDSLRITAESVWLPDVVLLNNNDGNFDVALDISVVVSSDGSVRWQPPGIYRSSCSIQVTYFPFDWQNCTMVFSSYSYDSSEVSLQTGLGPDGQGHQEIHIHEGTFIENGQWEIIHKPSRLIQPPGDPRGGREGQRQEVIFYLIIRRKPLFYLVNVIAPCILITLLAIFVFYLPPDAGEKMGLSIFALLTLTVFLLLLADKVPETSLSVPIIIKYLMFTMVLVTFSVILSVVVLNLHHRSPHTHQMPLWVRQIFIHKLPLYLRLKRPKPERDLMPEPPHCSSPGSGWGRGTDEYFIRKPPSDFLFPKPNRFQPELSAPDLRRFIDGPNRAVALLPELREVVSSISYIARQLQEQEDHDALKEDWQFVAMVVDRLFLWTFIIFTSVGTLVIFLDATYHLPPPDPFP
α1 nicotinic AChR, sequence (Q07001 22-517 partner): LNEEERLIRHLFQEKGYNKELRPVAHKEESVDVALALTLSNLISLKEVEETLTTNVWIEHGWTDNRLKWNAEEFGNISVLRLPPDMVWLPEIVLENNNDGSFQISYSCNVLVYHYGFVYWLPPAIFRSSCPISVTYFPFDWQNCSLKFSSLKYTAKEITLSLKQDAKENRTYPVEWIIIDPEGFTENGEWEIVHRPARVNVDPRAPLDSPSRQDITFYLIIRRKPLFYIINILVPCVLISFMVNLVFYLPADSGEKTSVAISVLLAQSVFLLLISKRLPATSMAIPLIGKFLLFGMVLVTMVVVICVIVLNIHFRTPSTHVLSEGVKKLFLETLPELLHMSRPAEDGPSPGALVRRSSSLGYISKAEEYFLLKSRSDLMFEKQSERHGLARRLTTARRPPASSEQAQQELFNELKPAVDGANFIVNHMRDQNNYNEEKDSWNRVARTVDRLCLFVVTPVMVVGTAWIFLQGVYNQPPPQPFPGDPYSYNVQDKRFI
Procedure: (§1) GSK716 selectivity and PK properties were profiled in order to investigate the suitability of GSK716 for progression into in vivo studies and the potential for taking it forward as a clinical candidate for testing in humans. Since GSK716 results in loss of inhibitory activity of α1‐antitrypsin, the effect of the compound was assessed on other closely related serpins. […] Furthermore, there were no off‐target effects in a panel of assays considered predictive of known safety liabilities that precluded further development of GSK716 (Table EV1).

hERG = hERG (Homo sapiens, UniProt Q12809); assay: Off‐target panel: hERG (Barracuda); assay type: cell-based; conditions: Blocker, read-out: Mean (PXC50) (converted)
hERG, sequence (Q12809 whole entry): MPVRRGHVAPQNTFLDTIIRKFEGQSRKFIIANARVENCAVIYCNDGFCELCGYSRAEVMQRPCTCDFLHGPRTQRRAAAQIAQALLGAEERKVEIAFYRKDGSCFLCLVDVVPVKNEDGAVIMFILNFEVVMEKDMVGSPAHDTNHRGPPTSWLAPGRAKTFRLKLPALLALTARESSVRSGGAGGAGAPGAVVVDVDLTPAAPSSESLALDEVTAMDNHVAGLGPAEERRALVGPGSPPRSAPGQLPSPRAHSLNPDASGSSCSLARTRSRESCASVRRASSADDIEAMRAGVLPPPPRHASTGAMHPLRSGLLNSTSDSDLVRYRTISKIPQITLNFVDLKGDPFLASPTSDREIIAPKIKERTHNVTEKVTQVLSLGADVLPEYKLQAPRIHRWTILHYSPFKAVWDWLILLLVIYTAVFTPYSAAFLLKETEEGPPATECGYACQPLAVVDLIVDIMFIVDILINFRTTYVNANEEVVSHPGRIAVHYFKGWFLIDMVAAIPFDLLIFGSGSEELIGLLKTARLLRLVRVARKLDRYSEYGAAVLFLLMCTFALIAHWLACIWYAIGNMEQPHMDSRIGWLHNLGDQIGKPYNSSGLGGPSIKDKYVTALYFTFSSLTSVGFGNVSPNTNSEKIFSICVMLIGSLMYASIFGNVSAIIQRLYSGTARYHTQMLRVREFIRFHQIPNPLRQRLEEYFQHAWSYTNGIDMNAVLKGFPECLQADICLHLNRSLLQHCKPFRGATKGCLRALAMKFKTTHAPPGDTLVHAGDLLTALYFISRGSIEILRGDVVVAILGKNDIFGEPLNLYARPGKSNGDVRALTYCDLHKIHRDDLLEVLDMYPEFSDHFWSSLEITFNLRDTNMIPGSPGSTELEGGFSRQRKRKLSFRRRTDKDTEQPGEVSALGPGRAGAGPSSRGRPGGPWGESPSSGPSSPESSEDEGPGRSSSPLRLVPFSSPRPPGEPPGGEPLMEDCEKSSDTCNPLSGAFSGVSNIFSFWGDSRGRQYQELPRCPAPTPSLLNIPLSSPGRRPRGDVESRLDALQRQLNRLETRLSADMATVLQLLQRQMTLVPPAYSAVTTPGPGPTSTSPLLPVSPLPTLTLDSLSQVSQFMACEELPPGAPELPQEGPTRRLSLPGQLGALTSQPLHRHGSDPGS
Procedure: as §1

PI3Kg = PI3Kg (Homo sapiens, UniProt P48736); assay: Off‐target panel: PI3Kg; assay type: biochemical; conditions: Inhibition, read-out: Mean (PXC50)
Procedure: as §1

Serotonin 5HT1B = Serotonin 5HT1B (Homo sapiens, UniProt P28222); assay: Off‐target panel: Serotonin 5HT1B; assay type: cell-based
Serotonin 5HT1B, sequence (P28222 whole entry): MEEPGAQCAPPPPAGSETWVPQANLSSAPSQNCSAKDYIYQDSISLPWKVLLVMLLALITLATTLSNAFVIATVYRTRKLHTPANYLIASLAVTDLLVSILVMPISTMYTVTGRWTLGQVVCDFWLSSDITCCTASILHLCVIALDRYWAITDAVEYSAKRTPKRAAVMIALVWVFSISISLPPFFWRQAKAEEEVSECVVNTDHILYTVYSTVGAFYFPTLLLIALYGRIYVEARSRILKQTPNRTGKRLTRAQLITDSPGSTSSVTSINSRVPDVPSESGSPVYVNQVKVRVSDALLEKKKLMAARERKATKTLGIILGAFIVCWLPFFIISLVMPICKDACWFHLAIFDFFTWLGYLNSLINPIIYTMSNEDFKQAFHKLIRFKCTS
Procedure: as §1

Serotonin 5HT2A = Serotonin 5HT2A (Homo sapiens, UniProt P28223); assay: Off‐target panel: Serotonin 5HT2A (DRX); assay type: cell-based
Serotonin 5HT2A, sequence (P28223 whole entry): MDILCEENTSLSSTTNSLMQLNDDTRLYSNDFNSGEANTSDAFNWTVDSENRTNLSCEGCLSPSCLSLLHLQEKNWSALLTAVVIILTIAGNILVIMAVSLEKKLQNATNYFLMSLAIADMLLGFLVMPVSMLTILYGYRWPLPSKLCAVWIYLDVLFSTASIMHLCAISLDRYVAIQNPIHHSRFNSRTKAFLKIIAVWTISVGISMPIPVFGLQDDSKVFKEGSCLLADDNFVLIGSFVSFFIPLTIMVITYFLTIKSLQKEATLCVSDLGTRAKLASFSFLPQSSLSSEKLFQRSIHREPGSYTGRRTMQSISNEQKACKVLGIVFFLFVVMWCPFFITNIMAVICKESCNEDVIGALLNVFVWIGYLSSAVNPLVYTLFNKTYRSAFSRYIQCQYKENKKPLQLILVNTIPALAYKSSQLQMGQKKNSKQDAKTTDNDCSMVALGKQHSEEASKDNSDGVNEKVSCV
Procedure: as §1

Z α1‐antitrypsin = Z α1‐antitrypsin (Homo sapiens, UniProt P01009, E366K); assay: Rapid refolding by snap dilution, non‐denaturing PAGE; assay type: biochemical; design: purified from the plasma of Z α1‐antitrypsin homozygotes; from tissue; host or cells: human plasma of Z α1-antitrypsin homozygotes; conditions: snap dilution from denaturant
Z α1‐antitrypsin, sequence (P01009 25-418 E366K): as the sequence (P01009 25-418) above, with E342K counted along it

CCC[C@@H](NC(=O)c1cccc2c1CC(=O)N2)[C@@H](O)c1cccc(F)c1C [GSK716]
selectivity: affinity for Z over M α1‐antitrypsin [1]: 50 fold
Kd ([1]; plasma‐purified wild‐type M α1‐antitrypsin, n = 10, mean ± SD, read-out: mean pKD (converted)): 0.158 µM
EC50 [2]: 0.631 µM
inhibitory activity of antithrombin towards its cognate protease (antithrombin): did not affect
EC50 (α1 nicotinic AChR): > 50.1 µM
IC50 (α1 nicotinic AChR): 31.6 µM
IC50 (hERG): 15.8 µM
IC50 (PI3Kg): > 31.6 µM
EC50 (Serotonin 5HT1B): > 100 µM
IC50 (Serotonin 5HT1B): > 100 µM
EC50 (Serotonin 5HT2A): > 100 µM
IC50 (Serotonin 5HT2A): 63.1 µM
misfolded by‐product of M* on refolding of the Z variant (Z α1‐antitrypsin): corrected at stoichiometric concentrations and above
